{"source": "ChEMBL document CHEMBL1201862", "about": "“PubChem BioAssay data set” (2004)", "key": {"[1]": {"target": "Heat shock protein HSP 90-alpha (Homo sapiens, UniProt P07900)", "assay_type": "functional, organism-based"}, "[2]": {"target": "T1, Polyadenylate-binding protein 1 (Homo sapiens, UniProt P11940)", "T1 sequence (P11940 whole entry)": "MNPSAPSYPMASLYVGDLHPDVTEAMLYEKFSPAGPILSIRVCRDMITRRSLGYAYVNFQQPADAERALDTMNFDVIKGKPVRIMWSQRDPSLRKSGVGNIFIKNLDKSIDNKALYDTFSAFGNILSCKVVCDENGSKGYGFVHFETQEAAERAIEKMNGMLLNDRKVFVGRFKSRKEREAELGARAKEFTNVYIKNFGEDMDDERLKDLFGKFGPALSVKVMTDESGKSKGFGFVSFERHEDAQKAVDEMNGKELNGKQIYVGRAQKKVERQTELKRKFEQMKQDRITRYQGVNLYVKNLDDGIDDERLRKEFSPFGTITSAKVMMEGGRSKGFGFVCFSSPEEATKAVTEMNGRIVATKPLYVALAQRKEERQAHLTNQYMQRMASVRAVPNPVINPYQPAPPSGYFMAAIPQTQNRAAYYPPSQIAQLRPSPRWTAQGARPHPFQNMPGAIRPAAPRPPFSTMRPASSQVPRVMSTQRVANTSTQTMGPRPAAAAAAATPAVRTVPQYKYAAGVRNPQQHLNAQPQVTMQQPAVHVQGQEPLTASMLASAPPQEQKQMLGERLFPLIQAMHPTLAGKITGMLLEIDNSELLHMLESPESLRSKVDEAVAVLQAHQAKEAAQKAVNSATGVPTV", "assay": "PABP1 MLLE–PAM2 binding inhibitor potency, dose response, biochemical, fluorescence polarization, FITC-PAM2 peptide (AID 602259)", "assay_type": "functional", "conditions": "read-out: IC50_Mean"}, "[3]": {"target": "T1, Polyadenylate-binding protein 1", "assay": "PABP1 MLLE–PAM2 interaction inhibitors, dose response, miRNA deadenylation inhibitor project, biochemical, fluorescence polarization, Cy5-PAM2 peptide, secondary (AID 602260)", "assay_type": "functional", "conditions": "read-out: IC50_Mean"}, "Large T antigen": {"target": "Large T antigen (Simian virus 40, UniProt P03070)", "sequence (P03070 whole entry)": "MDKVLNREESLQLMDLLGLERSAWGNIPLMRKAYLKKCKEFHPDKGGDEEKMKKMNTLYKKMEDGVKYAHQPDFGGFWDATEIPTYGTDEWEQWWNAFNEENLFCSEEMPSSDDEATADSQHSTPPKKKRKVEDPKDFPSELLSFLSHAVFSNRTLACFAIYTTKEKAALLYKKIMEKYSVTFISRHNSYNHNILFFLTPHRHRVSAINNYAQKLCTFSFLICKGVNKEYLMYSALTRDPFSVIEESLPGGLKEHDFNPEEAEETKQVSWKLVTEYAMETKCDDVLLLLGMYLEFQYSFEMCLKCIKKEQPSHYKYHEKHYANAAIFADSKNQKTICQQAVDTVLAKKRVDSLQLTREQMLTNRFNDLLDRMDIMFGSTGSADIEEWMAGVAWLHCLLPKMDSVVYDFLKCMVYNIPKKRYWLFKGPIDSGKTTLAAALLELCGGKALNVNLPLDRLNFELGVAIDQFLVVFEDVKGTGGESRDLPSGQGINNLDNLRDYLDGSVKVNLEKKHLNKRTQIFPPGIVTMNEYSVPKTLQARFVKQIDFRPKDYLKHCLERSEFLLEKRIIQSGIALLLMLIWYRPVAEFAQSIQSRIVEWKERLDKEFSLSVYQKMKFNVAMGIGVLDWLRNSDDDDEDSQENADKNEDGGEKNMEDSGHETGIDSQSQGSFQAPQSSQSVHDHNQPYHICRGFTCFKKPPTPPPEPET", "assay_type": "functional, Betapolyomavirus macacae"}, "[4]": {"target": "T2, High affinity choline transporter 1 (Homo sapiens, UniProt Q9GZV3)", "T2 sequence (Q9GZV3 whole entry)": "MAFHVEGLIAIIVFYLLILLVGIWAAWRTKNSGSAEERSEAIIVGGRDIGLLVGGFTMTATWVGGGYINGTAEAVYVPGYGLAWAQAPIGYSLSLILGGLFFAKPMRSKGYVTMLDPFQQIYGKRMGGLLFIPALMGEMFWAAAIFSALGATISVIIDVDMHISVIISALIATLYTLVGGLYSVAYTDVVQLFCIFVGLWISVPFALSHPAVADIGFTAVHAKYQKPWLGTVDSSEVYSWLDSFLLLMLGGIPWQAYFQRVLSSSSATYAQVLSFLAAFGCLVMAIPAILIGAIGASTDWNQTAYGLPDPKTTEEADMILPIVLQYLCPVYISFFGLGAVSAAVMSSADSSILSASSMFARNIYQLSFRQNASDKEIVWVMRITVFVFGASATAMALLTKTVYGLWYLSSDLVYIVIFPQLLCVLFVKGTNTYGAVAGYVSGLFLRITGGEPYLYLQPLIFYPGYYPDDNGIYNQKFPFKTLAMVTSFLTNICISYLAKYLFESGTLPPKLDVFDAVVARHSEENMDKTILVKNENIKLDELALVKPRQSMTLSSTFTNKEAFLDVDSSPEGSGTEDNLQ", "assay": "CHT inhibitors, dose response, cell-based, 5-point CRC, membrane potential dye (AID 504840)", "assay_type": "functional"}, "cells": {"assay": "cells", "assay_type": "functional"}, "[5]": {"target": "FAD-linked sulfhydryl oxidase ALR (Homo sapiens, UniProt P55789)", "sequence (P55789 whole entry)": "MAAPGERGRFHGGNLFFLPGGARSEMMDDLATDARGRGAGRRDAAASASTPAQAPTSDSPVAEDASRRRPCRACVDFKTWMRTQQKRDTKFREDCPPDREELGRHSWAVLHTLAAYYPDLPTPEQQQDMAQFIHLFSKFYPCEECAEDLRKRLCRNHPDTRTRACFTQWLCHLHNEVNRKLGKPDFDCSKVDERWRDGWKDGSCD", "assay": "inhibitors of human ALR sulfhydryl oxidase, dose response, biochemical, H2O2 detection, luminescence, cherry-pick (AID 493248)"}, "[6]": {"assay": "HeLa cell cytotoxicity, dose response, cytotoxicity control for MgcRacGAP inhibitor project (AID 624300)", "assay_type": "functional"}, "[7]": {"target": "T3, Rac GTPase-activating protein 1 (Homo sapiens, UniProt Q9H0H5)", "T3 sequence (Q9H0H5 whole entry)": "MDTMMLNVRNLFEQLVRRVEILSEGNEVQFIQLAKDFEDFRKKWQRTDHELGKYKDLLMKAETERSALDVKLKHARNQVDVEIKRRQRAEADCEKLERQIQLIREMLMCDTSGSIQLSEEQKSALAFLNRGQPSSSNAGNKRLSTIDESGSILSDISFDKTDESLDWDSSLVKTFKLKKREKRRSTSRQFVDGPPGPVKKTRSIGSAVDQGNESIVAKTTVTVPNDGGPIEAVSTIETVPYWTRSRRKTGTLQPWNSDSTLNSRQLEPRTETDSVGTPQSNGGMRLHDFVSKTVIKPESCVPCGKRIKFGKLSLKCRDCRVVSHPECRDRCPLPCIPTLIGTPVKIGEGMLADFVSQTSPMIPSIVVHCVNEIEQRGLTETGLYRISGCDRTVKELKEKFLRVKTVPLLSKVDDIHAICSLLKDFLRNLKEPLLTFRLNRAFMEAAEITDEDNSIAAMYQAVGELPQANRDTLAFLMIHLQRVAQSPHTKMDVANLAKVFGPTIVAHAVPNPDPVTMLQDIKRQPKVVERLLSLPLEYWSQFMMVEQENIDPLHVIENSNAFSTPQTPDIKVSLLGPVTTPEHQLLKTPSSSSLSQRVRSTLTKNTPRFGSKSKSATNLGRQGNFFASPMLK", "assay": "MgcRacGAP GTPase-activating activity inhibitors, confirmation, biochemical, ADP Hunter fluorescence, primary and confirmatory (AID 624330)", "assay_type": "functional"}, "[8]": {"target": "T4, Heat shock factor protein 1 (Mus musculus, UniProt P38532)", "T4 sequence (P38532 whole entry)": "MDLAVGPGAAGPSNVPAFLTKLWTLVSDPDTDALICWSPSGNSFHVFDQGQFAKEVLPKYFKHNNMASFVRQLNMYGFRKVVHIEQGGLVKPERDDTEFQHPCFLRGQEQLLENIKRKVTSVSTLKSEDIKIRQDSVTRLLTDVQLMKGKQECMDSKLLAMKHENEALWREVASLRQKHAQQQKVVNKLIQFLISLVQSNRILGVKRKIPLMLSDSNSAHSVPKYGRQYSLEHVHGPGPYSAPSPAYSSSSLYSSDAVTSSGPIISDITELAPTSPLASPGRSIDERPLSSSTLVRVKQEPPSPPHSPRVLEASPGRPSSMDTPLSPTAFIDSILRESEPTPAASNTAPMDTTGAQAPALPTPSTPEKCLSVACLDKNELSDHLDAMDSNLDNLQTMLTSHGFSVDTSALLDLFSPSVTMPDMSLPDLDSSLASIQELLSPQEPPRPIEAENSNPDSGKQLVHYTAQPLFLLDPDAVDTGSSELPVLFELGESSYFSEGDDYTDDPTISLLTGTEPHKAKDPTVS", "assay": "HSF1 potentiators in luciferase reporter cells, confirmation, cell-based, NIH3T3, luminescence, dose retest (AID 435004);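 further: stress induced by proteasome inhibitor MG132 added 30 min after compound; actives raise luminescence as potentiators of the MG132 stress response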", "assay_type": "functional"}}, "note": "The source made the active and inactive calls.", "data": [{"smiles": "CCc1ccc(S(=O)(=O)N(C(=O)c2ccncc2)c2ccc(OC(=O)c3ccncc3)cc2)cc1", "values": [{"measurement": "AC50", "setting": "[1]", "value": "1.03 µM (active)"}]}, {"smiles": "CCCCCCC(=O)N(O)C1CC(=O)N(c2ccc(C)cc2)C1=O", "note": "(stereo unspecified)", "values": [{"measurement": "IC50", "setting": "[2]", "value": "> 66 µM (inactive)"}, {"measurement": "IC50", "setting": "[3]", "value": "> 66 µM (inactive)"}, {"measurement": "AC50", "setting": "[1]", "value": "1.43 µM (active)"}]}, {"smiles": "Cc1ccc(S(=O)(=O)N2[C@@H](c3ccc(Cl)cc3)C(C(=O)O)=CC[C@H]2c2ccc(Cl)cc2)cc1", "values": [{"measurement": "IC50", "setting": "Large T antigen", "value": "> 100 µM (active)"}, {"measurement": "IC50", "setting": "[4]", "value": "5.01 µM (active)"}]}, {"smiles": "CC1=CC2OC3CC4OC(=O)C=CC=CC(=O)OCCC(C)C(O)C(=O)OCC2(CC1)C4(C)C31CO1", "note": "(stereo unspecified)", "values": [{"measurement": "AC50", "setting": "[1]", "value": "< 0.195 µM (active)"}]}, {"smiles": "O=Cc1c(NCc2ccco2)nc2ccccn2c1=O", "values": [{"measurement": "IC50", "setting": "cells", "value": "40.4 µM (active)"}]}, {"smiles": "Sc1nnc(-c2ccco2)n1/N=C/c1cccc(Cl)c1Cl", "values": [{"measurement": "AC50", "setting": "[5]", "value": "4.84 µM (active)"}, {"measurement": "CC50", "setting": "[6]", "value": "96.5 µM (active)"}, {"measurement": "IC50", "setting": "[7]", "value": "95.7 µM (active)"}]}, {"smiles": "CCCCOc1ccc(C(=O)N/N=C/c2c[nH]nc2-c2ccc(OC)c(OC)c2)cc1", "values": [{"measurement": "EC50", "setting": "[8]", "value": "> 260 µM (inactive)"}]}, {"smiles": "CC(C)c1ccc(C2CC(=O)N3CN(C)CSC3=C2C#N)cc1", "note": "(stereo unspecified)", "values": [{"measurement": "IC50", "setting": "Large T antigen", "value": "54.9 µM (active)"}]}, {"smiles": "COC(=O)/C=C1/N=C(Nc2nc(C)cc(C)n2)N(c2ccc(C)c(C)c2)C1=O", "values": [{"measurement": "EC50", "setting": "[8]", "value": "> 260 µM (inactive)"}]}, {"smiles": "CCOC(=O)C1CCCN(C(=O)c2sc3nc(C)nc(N(CC)CC)c3c2C)C1", "note": "(stereo unspecified)", "values": [{"measurement": "EC50", "setting": "[8]", "value": "> 260 µM (inactive)"}]}, {"smiles": "Cn1c(-c2cccc([N+](=O)[O-])c2)cnc1NCc1cccc([N+](=O)[O-])c1", "values": [{"measurement": "CC50", "setting": "[6]", "value": "100 µM (active)"}]}]}
